Legend:
[1] = system: mouse lung endothelial cells (MLEC); assay: Murine endothelial cell proliferation by direct cell counting; type: cell-based; settings: physiological doses
Excerpt: Primary cultures of mouse lung endothelial cells (MLEC) were isolated as previously described (Ackah, E. et al., J. Clin Invest., 2005, 115(8): 2119-27; Muto, A. et al., J. Exp. Med., 2011, 208(3): 561-575). Mouse lung endothelial cells (MLECs) were isolated from 3-week-old wild type mice. Briefly, mice were euthanized with an overdose of ketamine/xylazine and the lungs excised, minced, and digested with 0.1% collagenase in RPMI medium. The digest was homogenized by passing multiple times through a 14-gauge needle, filtered through a 150-μm tissue sieve, and the cell suspension was plated on 0.1% gelatin-coated dishes. Endothelial cells were then isolated by immunoselection with PECAM-1- and ICAM-2-conjugated magnetic beads. After immunoselection with magnetic beads, endothelial cells were immortalized with polyoma middle T-antigen. Isolated MLEC were maintained with EBM-2/EGM-2 MV SingleQuot® Kit Supplement & Growth Factors (Lonza) containing 15% fetal bovine serum. Cell proliferation in MLEC was measured at 24 and 72 hours after MMI-0100 treatment by direct cell counting after trypsin treatment.

[2] = Observation of toxicity, tissue erosion or necrosis
[3] = system: human endothelial cell (EC); assay: MTS cell proliferation assay, endothelial cells; type: cell-based; settings: pre-treatment 20 ng/ml TNF-α
Protocol: Primary human aortic endothelial cells (HAEC) and primary human aortic smooth muscle cells (HASMC) were obtained from Invitrogen; primary human coronary artery endothelial cells (HCAEC) were obtained from Lonza.
All cultures were maintained in 25 cm^2 polystyrene tissue culture flasks in a 37° C., 5% CO2/95% air environment, with cell culture media refreshed every other day. All cells were seeded at a density of 20,000˜30,000 cells/cm^2, as required by the specific experiment, and allowed to grow to 80-90% confluence before being harvested/passaged. Only cells from early passages (numbers 2-8) were utilized in experiments.
The CellTiter 96® AQueous Non-Radioactive Cell Proliferation Assay (Promega) was used to assess drug effects on cell proliferation according to the manufacturer's instructions. Briefly, HAECs and HASMCs from early passages were grown to 80-90% confluence in 25 cm^2 tissue culture flasks in a 37° C./5% CO2 incubator prior to harvest. 200 μl of each type of cell suspension (at 20,000 cells/cm^2) was seeded onto separate 96-well plates to yield an approximate 60% confluence per well. Cells were allowed to adhere to the plate surface overnight, followed by addition of 20 ng/ml of TNF-α to stimulate production of inflammatory agents. After a 4-6 hour incubation period, MMI-0100 peptide drug ([…]; SEQ ID NO: 1) was added and cells incubated for another 20-24 hours. Each well was then supplemented with 100 μl of fresh medium and 20 μl of CellTiter 96® AQueous One Solution Reagent and incubated for an additional 1.5-2 hours prior to measuring absorbance of each well at 490 nm with a SoftMax®-equipped plate reader.
In order to determine the effect of pharmacological doses of MMI-0100 ([…]; SEQ ID NO: 1) on human endothelial cell (EC) and smooth muscle cell (SMC) proliferation, human EC and SMC cultures were treated with three concentrations (0.25 mM, 0.5 mM, and 1 mM) of MMI-0100 ([…] (SEQ ID NO: 1)) following pre-treatment with TNF-α.

[4] = molecular target: T1, MKK4 (Mus musculus, UniProt P47809); assay: MKK4 radiometric kinase assay; type: biochemical; settings: peptide 100 μM
T1 construct: purchased Millipore (KinaseProfiler service)
Excerpt: A commercial radiometric assay service was used to test the specificity and potency of MMI-0100 ([…]; SEQ ID NO: 1) by measuring its half maximal inhibitory concentrations (IC50). This quantitative assay measures how much MK2 inhibitor (MMI-0100; […] (SEQ ID NO: 1)) is needed to inhibit 50% of a given biological process or component of a process (i.e., an enzyme, cell, or cell receptor). Specifically, in these assays, a positively charged substrate is phosphorylated with a radiolabeled phosphate group from an ATP if the kinase is not inhibited by an inhibitor peptide. The positively charged substrate then is attracted to a negatively charged filter membrane, quantified with a scintillation counter, and compared to a 100% activity control. ATP concentrations within 15 μM of the apparent Km for ATP were chosen since an ATP concentration near the Km may allow for the kinases to have the same relative amount of phosphorylation activity. The individual conditions for each radiometric assay are as follows.
The reaction was initiated by the addition of the MgATP. After incubation for 40 minutes at room temperature, 5 μl of the incubation mix was used to initiate the JNK radiometric assay described above.
IC50 values for inhibitor peptides were determined using Millipore's IC50 Profiler Express service. The IC50 value was estimated from a 10-point curve of one-half log dilutions. […]

T1 sequence (P47809 whole entry): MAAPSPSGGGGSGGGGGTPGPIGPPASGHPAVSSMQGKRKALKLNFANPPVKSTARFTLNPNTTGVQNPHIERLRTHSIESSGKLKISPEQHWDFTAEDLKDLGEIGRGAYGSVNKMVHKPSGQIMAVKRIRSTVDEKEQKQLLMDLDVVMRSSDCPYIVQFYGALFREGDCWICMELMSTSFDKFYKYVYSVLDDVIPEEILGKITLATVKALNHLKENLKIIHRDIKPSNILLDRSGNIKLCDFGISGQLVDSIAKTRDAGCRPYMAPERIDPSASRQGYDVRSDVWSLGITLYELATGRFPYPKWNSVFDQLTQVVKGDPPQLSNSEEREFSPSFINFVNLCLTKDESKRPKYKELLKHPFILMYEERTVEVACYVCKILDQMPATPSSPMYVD

YARAAARQARAKALARQLGVAA [MMI-0100]
murine EC proliferation [1]: did not induce significant murine EC proliferation
evidence of toxicity, tissue erosion, or necrosis [2]: did not show any evidence of toxicity, tissue erosion, or necrosis
EC proliferation vs TNF-α alone control ([3]; 0.25 mM): slightly increased cell proliferation
increase in EC proliferation vs TNF-α alone control ([3]; 0.5 mM): 30%
increase in EC proliferation vs TNF-α alone control ([3]; 1 mM): 11%
Percent Activity, MKK4 [4]: 90%

From patent US20110288036A1, “Methods for Treating or Preventing Vascular Graft Failure” (priority 2010, published 2011)
